Data published in patent US12605359B2, “Proprotein convertase subtilisin/kexin type 9 (PCSK9) inhibitor and pharmaceutical use therefor” (THE KITASATO INSTITUTE, priority 2020, dated 2026).

Assays:
PCSK9 [1] = test: In vitro PCSK9 inhibition test: Western blot of PCSK9/ProPCSK9 in culture medium and cells of HepG2 cells; format: cell-based, human; details: HepG2, 24 hours; for PCSK9 (in cells) / PCSK9 (in culture medium) / ProPCSK9 (in cells) / Total PCSK9 amount: percentage with respect to total amount of PCSK9 in the control; for total amount of PCSK9, dependence on the concentration added: 1.0 and 10 micro gram/mL; for total amount of PCSK9, dependence on the concentration added / amount of PCSK9 in the culture medium and the cells, as compared with the control: result in words
Procedure: HepG2 cells derived from human liver cancer (5×10^5 cells/mL, 0.25 mL/well) were seeded on a 48-well plate. Subject compounds: 1,11-O-o-methylbenzylidene-7-O-p-cyanobenzoyl-1,7,11-trideacetyl pyripyropene A (PRD125), 7-p-cyanobenzoyl-7-deacetyl pyripyropene A (PRD017), 7-O-p-cyanobenzoyl-1,11-di(O-isobutyryl)-1,7,11-trideacetyl pyripyropene A (PRD056), and comparative compounds: pyripyropene A (PPPA) and a known statin drug, atorvastatin (Atr), were each added to the wells at a predetermined concentration, and the cells were cultured in a serum-free medium at 37° C. for 24 hours. As a control, the cells were treated in wells in the absense of compound under similar conditions. After culturing, the culture medium and the cells were collected. PCSK9 in the culture medium and the cells was detected by Western blotting. Using an image analysis software (ImageLab), band intensity of the detected PCSK9 was quantified. The quantitative value of each band intensity was corrected based on the quantitative value of the band intensity of glyceraldehyde-3-phosphate dehydrogenase (GAPDH) that is a loading control for Western blotting. In the figure, FIG. 1A indicates the results of detecting PCSK9 and ProPCSK9 in the culture medium and the cells with PRD017 or PRD056 added, and FIG. 1B indicates the results of detecting PCSK9 and ProPCSK9 in the culture medium and the cells with PRD125, Atr, or PPPA added. In FIG. 2, FIG. 2A indicates the results with PRD017 added, FIG. 2B indicates the results with PRD056 added, and FIG. 2C indicates the results with PRD125 added, respectively. In FIG. 3, FIG. 3A indicates the results with Atr added, and FIG. 3B indicates the results with PPPA added, respectively. In the figures, the horizontal axis indicates the concentration of the compound (micro gram/mL) added, and the vertical axis indicates the total amount of PCSK9(%), respectively. The total amount of PCSK9 is a percentage with respect to the total amount of PCSK9 in the control. The values in Table 1 are percentages with respect to the total amount of PCSK9 in the control.

PCSK9 [2] = test: In-vivo PCSK9 inhibition test in high-fat-diet-fed mice; parameters: species or system mice (C57BL/6J); details: 10 mg/kg body weight/day in HFD for 8 weeks, versus control group
Procedure: Female and male mice (C57BL/6J) were fed with high-fat diet (HFD) for 4 weeks. The mice were grouped into the control group, the PPPA-administered group and PRD125-administered group (N=20 for males and N=20 for females in each group). The PPPA-administered group and the PRD125-administered group were fed with HFD with each subject compound or a comparative compound added for 8 weeks. The control group was fed only with HFD for 8 weeks. The PPPA was administered at a dose of 50 mg/kg body weight/day, and the PRD125 was administered at a dose of 10 mg/kg body weight/day, respectively. After the completion of the administration period, the blood was collected and the liver was extracted under anesthesia, from the mice of each group. The amount of LDL-cholesterol and the amount of PCSK9 in the blood, and the amount of total cholesterol, the amount of cholesteryl ester, and the amount of triglyceride in the liver were measured. The averages and the standard deviations of the measured values in each group were calculated. Further, the p values for the values of the PPPA-administered group and the PRD125-administered group with respect to the value of the control group were calculated by the student t-test. […]

| Compound | PCSK9 (in cells) (PCSK9 [1]; 1.0 micro gram/mL) [%] | PCSK9 (in culture medium) (PCSK9 [1]; 1.0 micro gram/mL) [%] | ProPCSK9 (in cells) (PCSK9 [1]; 1.0 micro gram/mL) [%] | Total PCSK9 amount (PCSK9 [1]; 1.0 micro gram/mL) [%] | amount of PCSK9 in the culture medium with respect to the amount of PCSK9 in the culture medium of the control (PCSK9 [1]; 10 micro gram/mL) [%] | amount of ProPCSK9 in the cells with respect to the amount of ProPCSK9 in the cells of the control (PCSK9 [1]; 10 micro gram/mL) [%] | PCSK9 (in cells) (PCSK9 [1]; 10 micro gram/mL) [%] | PCSK9 (in culture medium) (PCSK9 [1]; 10 micro gram/mL) [%] | ProPCSK9 (in cells) (PCSK9 [1]; 10 micro gram/mL) [%] | Total PCSK9 amount (PCSK9 [1]; 10 micro gram/mL) [%] | total amount of PCSK9, dependence on the concentration added (PCSK9 [1]) | amount of PCSK9 in the cells with respect to the amount of PCSK9 in the cells of the control (PCSK9 [1]; 10 micro gram/mL) [%] | amount of PCSK9 in the culture medium and the cells, as compared with the control (PCSK9 [1]) | amount of PCSK9 in the blood (PCSK9 [2]; HFD-fed male and female mice) | amount of triglyceride in the liver and the blood (PCSK9 [2]; HFD-fed mice) |
| --- | --- | --- | --- | --- | --- | --- | --- | --- | --- | --- | --- | --- | --- | --- | --- |
| 7-O-p-cyanobenzoyl-1,11-di(O-isobutyryl)-1,7,11-trideacetyl pyripyropene A [PRD056] | 27.2 | 21.1 | 8.1 | 56.4 | 30 | 44.8 | 34.5 | 15.2 | 6.4 | 56.1 | decreased depending on the concentration added |  |  |  |  |
| CC(C)c1c(C(=O)Nc2ccccc2)c(-c2ccccc2)c(-c2ccc(F)cc2)n1CC[C@@H](O)C[C@@H](O)CC(=O)O [Atr, atorvastatin, reference compound] | 49.4 | 129.3 | 90.0 | 268.7 | 273.8 | 682.5 | 63.2 | 136.1 | 97.6 | 296.8 |  | 175.6 | rather increased |  |  |
| CC(=O)OC[C@@]1(C)[C@@H]2C[C@H](OC(C)=O)[C@@]3(C)Oc4cc(-c5cccnc5)oc(=O)c4[C@H](O)[C@@H]3[C@@]2(C)CC[C@@H]1OC(C)=O [PPPA, pyripyropene A, reference compound] | 35.7 | 45.2 | 35.7 | 116.6 |  |  | 38.4 | 31.7 | 19.7 | 89.8 |  |  | no significant difference |  |  |
| CC(=O)OCC1(C)[C@@H](OC(C)=O)CC[C@]2(C)[C@H]3[C@@H](O)c4c(cc(-c5cccnc5)oc4=O)O[C@]3(C)[C@@H](OC(=O)c3ccc(C#N)cc3)C[C@@H]12 (stereo partly shown) [PRD017, 7-p-cyanobenzoyl-7-deacetyl pyripyropene A] | 40.3 | 28.3 | 11.7 | 80.3 | 44 | 46 | 29.4 | 22.0 | 6.6 | 58 | decreased depending on the concentration added |  |  |  |  |
| Cc1ccccc1[C@@H]1OCC2(C)C3C[C@H](OC(=O)c4ccc(C#N)cc4)[C@@]4(C)Oc5cc(-c6cccnc6)oc(=O)c5[C@H](O)C4[C@@]3(C)CC[C@@H]2O1 (stereo partly shown) [PRD125, 1,11-O-o-methylbenzylidene-7-O-p-cyanobenzoyl-1,7,11-trideacetyl pyripyropene A] | 20.7 | 23.0 | 12.8 | 56.5 | 41.6 |  | 23.6 | 20.7 | 10.4 | 54.7 | decreased depending on the concentration added |  |  | significantly reduced | markedly reduced |
